In article PMC12019583 (Journal of Neurochemistry, 2025):
Values joined by “and” are separate entries in the source; they are usually repeats but may differ in a detail not shown here. Equal values may be shown once. Read-outs that look alike come from different tables or passages of the source.

Legend:
human SERT [1] = biological target: T1, human SERT (Homo sapiens, UniProt P31645); test: Whole-cell patch-clamp recordings of 5-HT-induced currents in HEK293 cells expressing human SERT; format: cell-based; conditions: for effect on serotonin-induced inwardly directed current: 10 μM, 5-HT 10 μM
Protocol: Whole‐cell patch‐clamp recordings were performed as recently described (Niello et al. [2023]). HEK293 cells stably expressing wild‐type GFP‐tagged human SERT were seeded at low density on poly‐D‐lysine‐coated dishes. Twenty hours after seeding, these cells were subjected to patch‐clamp recordings in the whole‐cell configuration. […] The internal solution in the patch pipette contained 133 mM potassium gluconate (CH2OH(CHOH)4COOK), 5.9 mM NaCl, 1 mM CaCl2, 0.7 mM MgCl2, 10 mM HEPES, 10 mM EGTA (pH adjusted to 7.2 with KOH). Drugs were applied using a 4‐tube ALA perfusion manifold (NPI Electronic GmbH, Germany) and a DAD‐12 superfusion system (Adams & List, Westbury, NY, USA) allowing for complete solution exchange around the cells within 100 ms. Currents were recorded via an Axopatch 200B amplifier (MDS Analytical Technologies, Sunnyvale, California) and analyzed using Clampfit 10.2 software. Passive holding currents were subtracted, and the traces were filtered using a 100 Hz digital Gaussian low‐pass filter.
(§1) The symbols represent three to four experiments performed in triplicate on different days, the error bars denote standard deviation. The red curves indicate the conditions promoting the optical switching (at a wavelength of 365 nm), the black curves indicate standard illumination. […] The rate of current recovery upon removal of (Z)‐9 from the bath solution (i.e., k off) was estimated by a fit of a monoexponential function to the current trace (see solid red line). […] Panel d: Viability assay employing trypan blue. […] PAR = paroxetine.

rat GAT1 = biological target: T2, rat GAT1 (Rattus norvegicus, UniProt P23978); test: Uptake inhibition of [3H]GABA in HEK293 cells expressing YrGAT1; format: cell-based; conditions: for IC50: [3H]GABA uptake, read-out: rGAT IC50 ± SD
T2 construct: expressed in transfected cells
Protocol: (§2) The cells were cultured in a humidified atmosphere (37°C, 5% CO2) on standard plastic culture ware. To maintain the selection pressure for the stable cell lines, 150 units/mL Geneticin was added. Cells were typically not passaged over 25 times.
(§3) After 10 min, the preincubation solution was replaced by 0.05 mL/well KHB still containing the substance of interest and tritiated substrate additionally (50 nM [^3H]MPP^+ for the YhDAT; 100 nM [^3H]5HT for the YhSERT; 30 nM [^3H]GABA for the YhGAT1, hGAT3 and YrGAT1 and 20 nM [^3H]MPP^+ for the hNET) maintaining UV light treatment/no additional light treatment. Substrate uptake was stopped after 1 min (for [^3H]5HT) or 3 min (for [^3H]GABA and [^3H]MPP^+), respectively, by exchange of the substrate‐containing buffer with 0.2 mL/well ice‐cold KHB. The KHB was aspirated immediately, and the cells were lysed in 0.2 mL 1% SDS, transferred to 6‐mL scintillation vials, and assayed for [^3H] content by liquid scintillation counting.
(§4) Data from uptake experiments were subjected to non‐linear, least squares curve fitting to equations for a rectangular hyperbola using a Marquardt–Levenberg algorithm (GraphPad Prism v.9).

human GAT1 = biological target: T3, human GAT1 (Homo sapiens, UniProt P30531); test: Uptake inhibition of [3H]GABA in HEK293 cells expressing YhGAT1; format: cell-based; conditions: for IC50: [3H]GABA uptake, read-out: hGAT1 IC50 ± SD
T3 construct: expressed in transfected cells; host or cells: HEK293
Protocol: as §2, §3, §4

human SERT [2] = biological target: T1, human SERT; test: Uptake inhibition of [3H]5-HT in HEK293 cells stably expressing YhSERT; format: cell-based; conditions: for IC50: [3H]5-HT uptake, read-out: SERT IC50 ± SD
Protocol: as §2, §3, §4

HEK293 cells = test: Viability assay employing trypan blue; format: cell-based, human; conditions: dose-dependent, up to high concentrations, DMSO positive control
Excerpt: as §1

human GAT3 = biological target: T4, human GAT3 (Homo sapiens, UniProt P48066); test: Uptake inhibition of [3H]GABA in HEK293 cells expressing hGAT3; format: cell-based; conditions: for IC50: [3H]GABA uptake, read-out: hGAT3 IC50 ± SD
T4 construct: expressed in transfected cells; host or cells: HEK293
T4 sequence (P48066 1-632): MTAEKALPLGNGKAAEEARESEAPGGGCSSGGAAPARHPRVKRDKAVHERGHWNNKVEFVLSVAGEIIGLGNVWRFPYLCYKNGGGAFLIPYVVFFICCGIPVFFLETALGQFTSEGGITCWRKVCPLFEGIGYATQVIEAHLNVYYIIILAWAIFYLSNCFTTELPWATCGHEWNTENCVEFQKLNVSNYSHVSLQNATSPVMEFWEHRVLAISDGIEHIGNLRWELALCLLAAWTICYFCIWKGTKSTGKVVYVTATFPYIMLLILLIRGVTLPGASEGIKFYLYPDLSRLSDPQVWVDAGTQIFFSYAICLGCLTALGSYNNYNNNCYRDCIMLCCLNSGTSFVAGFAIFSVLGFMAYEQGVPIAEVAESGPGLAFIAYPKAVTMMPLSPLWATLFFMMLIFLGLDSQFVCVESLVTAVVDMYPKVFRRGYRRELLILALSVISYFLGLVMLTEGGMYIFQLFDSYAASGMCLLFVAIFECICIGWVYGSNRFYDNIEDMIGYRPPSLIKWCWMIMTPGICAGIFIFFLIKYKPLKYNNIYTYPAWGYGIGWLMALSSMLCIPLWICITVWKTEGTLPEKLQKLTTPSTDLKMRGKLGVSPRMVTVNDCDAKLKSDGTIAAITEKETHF
Protocol: as §2, §3, §4

[3] = UHPLC-TOF-MS quantification of (E)/(Z) isomer content in photostationary state; format: physicochemical; conditions: after irradiation 365 nm 30 s; 10 μM; several solvents (DMSO and aqueous)
Protocol: Additionally, quantification measurements with UHPLC‐TOF‐MS were conducted to determine the efficiency of the (E) to (Z) isomerization of azo‐paroxetine. […] Moreover, biological uptake inhibition assay conditions were mimicked during the switching experiments by choosing respective solvents and sample concentrations. Samples representing the dark state were taken before irradiation, samples representing the (Z)‐state were obtained after irradiation with […] (intensity 600 mW/cm^2 10 mm focusing lens, λ 365 nm) for 30 s. […] Bandara and Burdette [2012]). […] Switching concentration 10 μM, concentration in UHPLC‐TOF‐MS sample 1 μM, UHPLC‐TOF‐MS sample preparation with water/acetonitrile 90/10.

human DAT = human DAT (Homo sapiens, UniProt Q01959); test: Uptake inhibition of [3H]MPP+ in HEK293 cells stably expressing YhDAT; format: cell-based; conditions: for loss in affinity at DAT in comparison with paroxetine (factor): basal light; for effect of optical switching on inhibitory potency at DAT: basal vs 365 nm; for IC50: [3H]MPP+ uptake, read-out: DAT IC50 ± SD
Protocol: as §2, §3, §4

hNET = hNET (Homo sapiens, UniProt P23975); test: Uptake inhibition of [3H]MPP+ in HEK293 cells stably expressing hNET; format: cell-based; conditions: for loss in affinity at NET in comparison with paroxetine (factor): basal light; for reduction in IC50 by optical switching at NET: basal vs 365 nm; for IC50: [3H]MPP+ uptake, read-out: NET IC50 ± SD
Protocol: as §2, §3, §4

[4] = Thermal (Z)/(E) isomerization half-life by UV/Vis; format: physicochemical; conditions: (Z)-isomer; 50 μM in dry DMSO, 23 °C; read-out: half-life time of thermal (Z)/(E) isomerization (converted)
Protocol: The rough experimental half-life time of the ( Z)-isomer of compound 9 was determined on a UV-1800 UV/Vis spectrophotometer from Shimadzu at 23 °C. A 50 μM sample of the compound in dry DMSO was irradiated with 365 nm for 5 seconds using the respective OmniCure® LED head at 100% power. Once the highest possible (Z)-isomer content was reached, the absorption at 331 nm, the ( E)-isomer’s absorption maximum l max, was regularly measured over the course of 12 hours. […]
of the thermal ( Z)/(E) isomerization.
A mathematical fitting function was used to linearize the obtained absorption data over time according to Equation S1.
AAllllllllllllllllllll = ln (AAmmllmm − AAtt )
Equation S1. Linear fit used for absorption AA .
The linearized absorption value gained by equation S1 was plotted over time and a linear fit function was applied. The obtained fit function gave the rate constant k as its slope value.
Next, the half- life time was calculated according to Equation S2. The resulting graph is shown […]
Equation S2. Calculation of half-life ττ1/2 time from rate constant kk .
This method of thermal half- life time determination wa s sufficiently precise for the […]
been shown (Singer et al, 2023) to yield similar results as compiling an Eyring plot for half-life time determination without the compound relax ing back to nearly 100% (E)-isomer.
Graph S1. […]

NET = biological target: NET; set-up: method as in Kristensen et al. [2011]; Owens et al. [2001]; conditions: ref Kristensen et al. [2011]; Owens et al. [2001]; cited from earlier work

Chain of hNET (P23975 whole entry): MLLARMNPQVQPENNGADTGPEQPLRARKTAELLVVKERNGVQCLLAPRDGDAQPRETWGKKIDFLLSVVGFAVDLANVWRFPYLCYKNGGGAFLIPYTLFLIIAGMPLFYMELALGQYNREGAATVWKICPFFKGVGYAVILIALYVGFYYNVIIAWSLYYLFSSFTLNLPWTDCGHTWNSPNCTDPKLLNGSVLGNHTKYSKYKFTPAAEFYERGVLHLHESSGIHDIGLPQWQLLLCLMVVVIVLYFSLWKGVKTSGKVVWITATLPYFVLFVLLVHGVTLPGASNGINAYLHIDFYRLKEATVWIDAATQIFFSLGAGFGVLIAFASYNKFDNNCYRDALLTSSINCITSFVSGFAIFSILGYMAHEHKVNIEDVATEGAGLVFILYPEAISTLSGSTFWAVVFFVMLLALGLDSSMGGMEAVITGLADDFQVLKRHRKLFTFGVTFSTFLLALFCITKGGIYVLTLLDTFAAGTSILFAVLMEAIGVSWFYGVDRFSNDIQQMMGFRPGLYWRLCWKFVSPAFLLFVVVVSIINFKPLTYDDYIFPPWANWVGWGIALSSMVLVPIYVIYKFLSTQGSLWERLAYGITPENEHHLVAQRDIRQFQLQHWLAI
T1 sequence (P31645 whole entry, the tested form may be a part): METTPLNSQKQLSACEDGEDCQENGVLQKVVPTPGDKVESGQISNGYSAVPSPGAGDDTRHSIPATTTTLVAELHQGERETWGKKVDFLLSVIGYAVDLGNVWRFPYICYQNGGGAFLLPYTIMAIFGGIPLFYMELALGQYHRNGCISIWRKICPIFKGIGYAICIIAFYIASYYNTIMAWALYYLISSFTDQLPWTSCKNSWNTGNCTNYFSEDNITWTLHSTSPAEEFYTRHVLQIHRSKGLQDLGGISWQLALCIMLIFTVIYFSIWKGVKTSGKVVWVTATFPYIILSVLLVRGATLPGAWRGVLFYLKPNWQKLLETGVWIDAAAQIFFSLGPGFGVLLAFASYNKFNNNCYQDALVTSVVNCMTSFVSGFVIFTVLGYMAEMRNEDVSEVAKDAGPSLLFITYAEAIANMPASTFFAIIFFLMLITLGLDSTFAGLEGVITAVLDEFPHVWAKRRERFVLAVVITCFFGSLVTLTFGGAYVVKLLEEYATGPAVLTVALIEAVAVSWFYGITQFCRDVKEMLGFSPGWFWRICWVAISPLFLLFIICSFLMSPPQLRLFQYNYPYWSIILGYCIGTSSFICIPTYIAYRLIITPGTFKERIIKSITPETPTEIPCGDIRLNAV
Chain of human DAT (Q01959 whole entry): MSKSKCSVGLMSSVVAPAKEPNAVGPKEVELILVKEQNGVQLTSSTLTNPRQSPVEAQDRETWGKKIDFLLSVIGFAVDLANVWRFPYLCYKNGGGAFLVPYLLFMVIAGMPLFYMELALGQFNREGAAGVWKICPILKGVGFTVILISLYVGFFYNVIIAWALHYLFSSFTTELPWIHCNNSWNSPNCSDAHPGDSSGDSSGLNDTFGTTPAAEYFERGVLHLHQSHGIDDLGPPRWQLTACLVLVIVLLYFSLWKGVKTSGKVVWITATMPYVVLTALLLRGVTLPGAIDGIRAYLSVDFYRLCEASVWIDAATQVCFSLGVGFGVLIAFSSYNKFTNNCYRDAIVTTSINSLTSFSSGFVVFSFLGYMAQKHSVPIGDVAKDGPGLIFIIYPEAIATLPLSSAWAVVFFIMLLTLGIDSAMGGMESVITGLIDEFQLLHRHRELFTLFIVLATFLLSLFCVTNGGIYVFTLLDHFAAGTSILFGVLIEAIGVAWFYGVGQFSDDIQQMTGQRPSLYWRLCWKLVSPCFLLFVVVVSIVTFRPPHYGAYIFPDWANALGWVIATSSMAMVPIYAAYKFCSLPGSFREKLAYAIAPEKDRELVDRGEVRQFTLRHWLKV
T3 sequence (P30531 whole entry): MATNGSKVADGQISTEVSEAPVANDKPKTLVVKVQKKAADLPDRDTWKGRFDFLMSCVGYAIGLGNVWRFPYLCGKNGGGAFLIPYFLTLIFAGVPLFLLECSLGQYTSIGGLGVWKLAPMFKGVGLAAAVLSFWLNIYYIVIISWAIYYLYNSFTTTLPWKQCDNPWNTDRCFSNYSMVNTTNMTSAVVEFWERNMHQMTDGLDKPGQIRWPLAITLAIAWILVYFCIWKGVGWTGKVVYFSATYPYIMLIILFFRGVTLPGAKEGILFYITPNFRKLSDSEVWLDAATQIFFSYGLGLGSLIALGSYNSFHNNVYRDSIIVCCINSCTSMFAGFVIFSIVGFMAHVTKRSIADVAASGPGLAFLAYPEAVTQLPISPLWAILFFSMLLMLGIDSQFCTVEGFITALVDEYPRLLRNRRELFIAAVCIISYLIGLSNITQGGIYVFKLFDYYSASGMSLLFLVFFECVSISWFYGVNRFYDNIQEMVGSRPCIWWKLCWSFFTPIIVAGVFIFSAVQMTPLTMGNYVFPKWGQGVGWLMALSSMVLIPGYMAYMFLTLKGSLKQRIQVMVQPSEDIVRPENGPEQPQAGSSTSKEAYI

## c1ccc(/N=N/c2ccc([C@@H]3CCNC[C@H]3COc3ccc4c(c3)OCO4)cc2)cc1 [(E)‐azo‐paroxetine (9)]
Human SERT [1]; (E)-isomer, standard light
  effect on serotonin-induced inwardly directed current: marginal blockade

## azobenzene [reference compound]
Rat GAT1; (E)-configuration
  inhibition of GABA uptake at rat GAT1: comparable to the value of the human GAT1
Human GAT1; (E)-configuration, up to 1 mM
  inhibition of GABA uptake at human GAT1: up to 40%
Human SERT [2]; concentrations up to 1 mM, basal and 365 nm
  inhibitory effect on [3H]5-HT uptake at human SERT: could not really observe any significant inhibitory effects
HEK293 cells
  cellular toxicity effects (trypan blue viability): neither azo‐paroxetine (9) nor azobenzene
Human GAT3; up to 1 mM
  inhibition of GABA uptake at human GAT3: more than 60%

## c1ccc(/N=N/c2ccc([C@@H]3CCNC[C@H]3COc3ccc4c(c3)OCO4)cc2)cc1 [Azo‐paroxetine (9)]
Human SERT [1]; HEK293, photoequilibrated (365 nm) state, n = 5, read-out: off-rate (k off)
  koff: 0.18 ± 0.031 s⁻¹
Human SERT [1]; photoequilibrated (365 nm)
  effect on serotonin-induced inwardly directed current: completely abolished the inwardly directed current
[3]
  (Z)-isomer content in photostationary state: 83%–87% and 83%
Rat GAT1
  improvement of affinity at rat GAT1 relative to paroxetine: around two to three‐fold
Rat GAT1; λ 365 nm
  IC50: 126 ± 20.6 µM
Rat GAT1; λ basal
  IC50: 88.9 ± 11.8 µM
Human DAT; listed as azo‐paroxetine
  loss in affinity at DAT in comparison with paroxetine (factor): ~ 3.7
  effect of optical switching on inhibitory potency at DAT: 2 to 3 fold
Human DAT; listed as azo‐paroxetine (9)
  loss in affinity at DAT in comparison with paroxetine (factor): 2 to 5
  effect of optical switching on inhibitory potency at DAT: 1.7 fold
Human DAT; λ 365 nm
  IC50: 3.77 ± 0.79 µM
Human DAT; λ basal
  IC50: 6.33 ± 2.06 µM
Human GAT1; λ 365 nm
  IC50: 107 ± 15 µM
Human GAT1; λ basal
  IC50: 80.8 ± 21.6 µM
Human SERT [2]; basal light
  loss in affinity at SERT in comparison with parent compound paroxetine (factor): 171 fold
Human SERT [2]; λ 365 nm (PSS, mainly (Z)-isomer)
  IC50: 0.76 ± 0.18 µM
Human SERT [2]; λ basal (standard light, (E)-isomer)
  IC50: 9.23 ± 3.06 µM
HEK293 cells; listed as azo‐paroxetine
  cellular toxicity effects (trypan blue viability): did not find any significant toxic impact
hNET; listed as azo‐paroxetine
  loss in affinity at NET in comparison with paroxetine (factor): ~ 5
  reduction in IC50 by optical switching at NET: 2 to 3 fold
hNET; listed as azo‐paroxetine (9)
  loss in affinity at NET in comparison with paroxetine (factor): 2 to 5
  reduction in IC50 by optical switching at NET: ~threefold
hNET; λ 365 nm
  IC50: 5.41 ± 3.32 µM
hNET; λ basal
  IC50: 15.4 ± 4.04 µM
[4]
  half-life at 50 μM: 156 h
Human GAT3; λ 365 nm
  IC50: 90.5 ± 24.4 µM
Human GAT3; λ basal
  IC50: 55 ± 16.4 µM

## Fc1ccc([C@@H]2CCNC[C@H]2COc2ccc3c(c2)OCO3)cc1 [Paroxetine, paroxetine, reference compound]
NET
  Ki: 0.156 ± 0.029 µM
Rat GAT1; λ basal
  IC50: 264 ± 140 µM
Human GAT1; λ basal
  IC50: 122 ± 81 µM
Human GAT3; λ basal
  IC50: 51 ± 3.7 µM
